Results: US10274488B2, “Glycan arrays on PTFE-like aluminum coated glass slides and related methods” (Academia Sinica, priority 2008, dated 2019)

Assays:
cellulase from A. niger = assay: Enzymatic hydrolysis in solution with cellulase from A. niger, MS-TOF readout; format: biochemical, Aspergillus niger; conditions: reaction in solution
Description: (§1) Enzymatic hydrolysis of the immobilized poly-fluorinated cellobiose 8 (see FIG. 14) was first conducted in situ on the phosphonic acid slide surface. Three commercially available cellulases, Aspergillus niger (A. niger), Trichoderma reesei (T. reesei), and Trichoderma viride (T. viride) were prepared separately at 5 U/mL in a sodium acetate (25 mM) buffer solution (pH 5) and loaded onto the functionalized slide which has been divided into 16 wells using Fast Frame reaction chambers. For comparison, an aliquot of enzyme solution (100 μL) was added to the solution of fluorinated cellobiose (100 μL of 0.5 mM) in eppendorfs to carry out the enzymatic hydrolysis reactions in solution. After the reaction, it was transferred to the empty wells of the same slide. Each well was rinsed separately three times with de-ionized water and the slide was dried again under high vacuum before subjecting to MS-TOF analysis.
(§2) Under MS-TOF analysis, the clean background baseline allowed calculation of the percentage of hydrolyzed components for each sample. As shown in the MS-TOF results in FIG. 20, percentages of hydrolyzed products are calculated from the peak intensities of each spectrum. According to implementations of experimental data shown in FIG. 20, MS-TOF data of enzymatic hydrolysis of poly-fluorinated cellobiose in solution in FIG. 20A and immobilized on PTFE-like ACG slide in FIG. 20B. The control are the same experimental conditions run without enzymes in (a); (b), (c), and (d) are experimental conditions with the cellulase proteins from A. niger (b), T. reesei (c), and T. viride (d).
(§3) Cellulase was prepared (5 U/mL in 25 mM pH 5.05 NaOAc buffer solution). Substrate was also dissolved in NaOAc buffer solution (25 mM, pH 5.05) to give 0.5 mM substrate solution. Add 100 uL cellulase solution to 100 uL substrate solution in eppendorf to have a 2.5 U/mL cellulase solution with 0.25 mM substrate. This solution was incubated in 37° C. for 18 hours. Add 100 μL incubated solution onto the slide loaded in FAST® Frame. Put the slide in dry box to remove the water, and then use high vacuum to remove trace water. 100 μL water was used to rinse each well of the FAST® Frame multi-slide plate to solve and remove the salt of the buffer solution. Remove any residual water on the plate by high vacuum and then analyzed the slide by MALDI-TOF Ultra-Flex II.

cellulase from T. reesei = assay: Enzymatic hydrolysis in solution with cellulase from T. reesei, MS-TOF readout; format: biochemical, Trichoderma reesei; conditions: reaction in solution
Description: as §1, §2, §3

exoglucanase L3 = assay: Enzymatic hydrolysis on the PTFE-like ACG surface with exoglucanase L3, MS-TOF assay; format: biochemical, Clostridium thermocellum; conditions: substrate immobilized on the PTFE-like ACG surface, 24 hours of incubation
Description: For each carbohydrate, a specific enzyme was added: (a) is the control run without enzymes, (b) is exoglucanase L3, and (c) is endoglucanase 44A. […]
For comparison and as illustrated according to implementations shown in FIG. 23, substrate 8, 9, and 10 were immobilized on the PTFE-like ACG surface and carried out the cellulase hydrolysis on the surface directly, after the same washing procedures, these slides were subjected to MS-TOF assay. […] The endoglucanase 44A can't accept compound 8 or 9 as a substrate. […] From the above results, the cellotetraose substrate 10 was the best carbohydrate to create array on the PTFE-like ACG surface for the experiments conducted. By using this array, the activity and specificity of unknown cellulase may be examined.
Cellulase was prepared (5 U/mL in 25 mM pH 5.05 NaOAc buffer solution). Substrate was also dissolved in NaOAc buffer solution (25 mM, pH 5.05) to give 0.5 mM substrate solution. Add 50 μL cellulase solution to 50 μL substrate solution onto the glass slide which was loaded in FAST® Frame multi-slide plate to have a 2.5 U/mL cellulase solution with 0.25 mM substrate. […] Put the slide in dry box to remove the water, and then use high vacuum to remove trace water. 100 uL water was used to rinse each well of the FAST® Frame multi-slide plate to solve and remove the salt of the buffer solution. Remove any residual water on the plate by high vacuum and then analyzed the slide by MALDI-TOF Ultra-Flex II.
The genomic DNA of Sulfolobus solfataricus (ATCC 35092) and Clostridium thermocellum (ATCC 27405) were obtained from the ATCC biological resource center. The Sso7d (NCBI accession number: AAK42090) gene fragment was amplified directly from the Sulfolobus solfataricus genome by polymerase chain reaction (PCR) with forward 5′ […] 3′ (SEQ ID NO: 1) and reverse 5′ […] 3′ (SEQ ID NO: 2) primers. […]

Row | Biose (un-hydrolyzed cellobiose), percentage of hydrolyzed pattern (cellulase from A. niger; A. niger cellulase, pH 5) [%] | F-tail, percentage of hydrolyzed pattern (cellulase from A. niger; A. niger cellulase, pH 5) | Glucose, percentage of hydrolyzed pattern (cellulase from A. niger; A. niger cellulase, pH 5) [%] | Triose, percentage of hydrolyzed pattern (cellulase from A. niger; A. niger cellulase, pH 5) [%] | Triose, percentage of hydrolyzed pattern (cellulase from A. niger; A. niger cellulase, pH 5, listed as cellobiose) [%] | Hydrolysis of the substrate by the enzyme from A. niger, one glucose unit at a time (in words) (cellulase from A. niger) | Biose (un-hydrolyzed cellobiose), percentage of hydrolyzed pattern (cellulase from T. reesei; T. reesei cellulase, pH 5) [%] | F-tail, percentage of hydrolyzed pattern (cellulase from T. reesei; T. reesei cellulase, pH 5) [%] | Glucose, percentage of hydrolyzed pattern (cellulase from T. reesei; T. reesei cellulase, pH 5) [%] | Triose, percentage of hydrolyzed pattern (cellulase from T. reesei; T. reesei cellulase, pH 5) | Cleavage of the substrate by exoglucanase L3 (in words) (exoglucanase L3) | Hydrolysis of the substrate by the enzyme from T. reesei compared with the enzymes from the other two species (in words) (cellulase from T. reesei) | SMILES
1 | 64 | 0/0% | 18 | 18 | 8 | very slow reaction rate | 7 | 0 | 93 | 0/0% | only cleaved a fraction | – | O=C(NCCCCCO[C@@H]1O[C@H](CO)[C@@H](O[C@@H]2O[C@H](CO)[C@@H](O)[C@H](O)[C@H]2O)[C@H](O)[C@H]1O)OCCCC(F)(F)C(F)(F)C(F)(F)C(F)(F)C(F)(F)C(F)(F)C(F)(F)C(F)(F)F [Compound 8, [(4,4,5,5,6,6,7,7,8,8,9,9,10,10,11,11,12,12,12-nonadecafluorododecoxycarbonyl-amino)pentyl] ß-D-cellobioside]
2 | – | – | – | – | – | very slow reaction rate | – | – | – | – | cleaved the cellobiose quickly | most efficiently | O=C(NCCCCCO[C@@H]1O[C@H](CO)[C@@H](O[C@@H]2O[C@H](CO)[C@@H](O[C@@H]3O[C@H](CO)[C@@H](O)[C@H](O)[C@H]3O)[C@H](O)[C@H]2O)[C@H](O)[C@H]1O)OCCCC(F)(F)C(F)(F)C(F)(F)C(F)(F)C(F)(F)C(F)(F)C(F)(F)C(F)(F)C(F)(F)F [Compound 9, [(4,4,5,5,6,6,7,7,8,8,9,9,10,10,11,11,12,12,12-nonadecafluorododecoxycarbonyl-amino)pentyl] ß-D-glucopyranosyl-(1→4)-ß-D-glucopyranosyl-(1→4)- -ß-D-glucopyranoside]
